Results on 18 compounds are retold here after patent US4847271A, “Antihypercholesterolemic β-lactones” (Merck & Co., Inc., priority 1987, dated 1989).

Read-outs that look alike come from different tables or passages of the source. Some results are limits rather than exact numbers.

The test has as its target T1, HMG-CoA synthase (Rattus norvegicus, UniProt P17425).
T1 construct: The livers from male Charles River CD rats (225-350 g) were homogenized in 0.25 M sucrose; from tissue; host or cells: rat liver (male Charles River CD rats), 100,000×g supernatant, ammonium sulfate precipitate, DEAE-52 fraction
T1 sequence (P17425 1-520): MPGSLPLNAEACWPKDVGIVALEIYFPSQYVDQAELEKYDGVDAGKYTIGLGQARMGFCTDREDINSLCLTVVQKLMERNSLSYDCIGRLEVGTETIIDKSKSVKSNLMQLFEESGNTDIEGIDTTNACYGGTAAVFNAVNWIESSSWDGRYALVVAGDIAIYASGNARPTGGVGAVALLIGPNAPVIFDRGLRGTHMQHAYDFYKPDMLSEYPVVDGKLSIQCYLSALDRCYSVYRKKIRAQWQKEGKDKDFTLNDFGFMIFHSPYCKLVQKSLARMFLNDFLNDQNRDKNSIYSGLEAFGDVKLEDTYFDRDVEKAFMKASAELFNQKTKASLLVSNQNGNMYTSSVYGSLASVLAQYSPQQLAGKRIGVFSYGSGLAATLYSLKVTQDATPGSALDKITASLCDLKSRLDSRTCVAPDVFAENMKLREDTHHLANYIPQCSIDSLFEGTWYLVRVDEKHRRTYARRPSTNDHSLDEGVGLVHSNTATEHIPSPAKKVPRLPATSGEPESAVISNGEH
As to the kind of experiment: HMG-CoA synthase inhibition assay (in vitro, enzyme partially purified from rat liver). It is filed as biochemical. As to the method:
The intrinsic HMG-CoA synthase inhibition activity of the compounds of this invention is measured by the standard in vitro protocol described below:
The livers from male Charles River CD rats (225-350 g) were homogenized in 0.25 M sucrose which was adjusted with phenylmethylsulfonylfluoride (PMSF) and N-p-tosyl-1-lysine chloromethyl ketone (TLCK) so that the final concentration of each was 50 and 25 μg/ml, respectively. The homogenate was centrifuged at 15,000×g for 20 minutes, the supernatant filtered through a fine nylon screen to remove most of the fat layer and recentrifuged at 100,000×g for 1 hour. This supernatant was removed and 1 M potassium phosphate, dithiothreitol (DTT) and ethylene glycolbis(β-aminoethyl ether)-N,N,N',N'-tetraacetic acid (EGTA) added to give a final concentration of 0.1 M (pH 7.2), 0.5 mM and 0.1 mM, respectively. Solid ammonium sulfate was added to 50% saturation to the protein solution, it was centrifuged at 15,000×g and the […]. This precipitated protein could be stored at -70° for at least one month with very little loss of activity. The ammonium sulfate rrecipitate was dissolved in an minimal amount of 0.06 M potassium phosphate buffer (pH 7.2) containing 0.5 mM dithiothreitol and 0.1 mM EGTA (referred to as 0.06 M phosphate buffer) and dialyzed overnight against 2 liters of the same buffer to remove the ammonium sulfate and to inactivate HMG-CoA lyase [Clinkenbeard, et al., J. Biol. Chem 250, 3108-3116(1975)].
The dialyzed extract was added to a column of DEAE-52 (Whatman) which had been equilibrated with 0.06 M phosphate buffer (10 mg of protein to 1 ml bed volume of the resin). The DEAE-cellulose was eluted with 0.06 M Phosphate buffer until the optical density at 280 nm was essentially zero. This fraction contained the β-ketoacetyl-CoA thiolase activity. The HMG-CoA synthase was eluted from the column with 0.1 M phosphate buffer (pH 7.2) containing 0.5 mM DTT and 0.1 mM EGTA, and was virtually free of all thiolase activity. The protein was precipitated by the addition of ammonium sulfate to give 50% saturation. This solution was stirred for 10 minutes at 4° C. and the precipitate collected by centrifugation at 15,000 rpm for 10 minutes. The supernatant was discarded and the precipitate dissolved in a minimum of 0.06 M phosphate buffer, pH 7.2 (about 10 ml) and the enzyme stored at -80° C.
HMG-CoA Synthase Inhibition Assay
Enzyme protein (ca. 24 μg) was added to a solution containing 117 mM Tris-HCl (pH 8.0), 11.7 mM MgCl2, 1.17 mM Ethylenediaminetetraacetic acid (EDTA), 0.58 mM dithiothreitol, and the indicated concentrations of the test compound (added as a 2 μg/ml solution in dimethylsulfoxide). The incubation took place in a volume of 0.085 ml at 30° in a shaking water bath. After 5 minutes, 15 μl of a solution containing acetoacetyl-CoA and 0.1 μCi of 1-[^14 C]-acetyl-CoA was added to give a final concentrations of 0.1 and 0.4 mM, respectively. The incubation was continued for 10 more minutes and the reaction stopped by the addition of 50 μl of the assay mixture to 0.2 ml of 6N HCl in a glass scintillation vial. The vial was heated for 1 hour at 120° after which time 0.2 ml more of 6N HCl was again added to each vial and the heating continued for another hour. Following this, 1.0 ml of 0.9% saline was added to each vial and finally 10 ml of scintillation liquid. Radioactivity was determined in a Packard Tri-Carb liquid scintillation counter. Percent inhibition is calculated by the formula: [formula] IC50 values were determined by plotting the log of the concentration of the test compound verses the percentage inhibition and fitting a straight line to the resulting data by using the least squares method.

[1] abbreviates: HMG-CoA synthase activity, 5 min preincubation, 30°, read-out: IC50.

For `CC(=CC(=O)Sc1ccccn1)C=C(C)CC(C)CCCCC1OC(=O)C1CO` (stereo not drawn) [2-pyridyl 11-(3-hydroxymethyl-4-oxo-2-oxetano)-3,5,7-trimethyl-2,4-undecadienthioate], under setting [1], the IC50 amounted to 120 nM.
Consider `CCCCCCNC(=O)C=C(C)C=C(C)CC(C)CCCCC1OC(=O)C1CO` (stereo not drawn) [Example 7, N-n-hexyl 11-(3-hydroxymethyl-4-oxo-2-oxetano)-3,5,7-trimethyl-2,4-undecadienamide], for which the IC50 under setting [1] was found to be 200 nM.
Still for that read-out and setting: as for `CC(=CC(N)=O)C=C(C)CC(C)CCCCC1OC(=O)C1CO` (stereo not drawn) [Example 8, 11-(3-hydroxymethyl-4-oxo-2-oxetano)-3,5,7-trimethyl-2,4-undecadienamide], the figure is below 100 nM; as for `CC(=CC(=O)Nc1ccc(Br)cc1)C=C(C)CC(C)CCCCC1OC(=O)C1CO` (stereo not drawn) [Example 9, N--(4-bromophenyl)-11-(3-hydroxymethyl-4-oxo-2-oxetano)-3,5,7-trimethyl-2,4-undecadienamide], 100 nM.
On the same count and under the same terms, the figure for `CC(=CC(=O)NCCO)C=C(C)CC(C)CCCCC1OC(=O)C1CO` (stereo not drawn) [Example 10, N--(2-hydroxyethyl)-11-(3-hydroxymethyl-4-oxo-2-oxetano)-3,5,7-trimethyl-2,4-undecadienamide] is below 100 nM.
Still for that read-out and setting: as for `COCC1C(=O)OC1CCCCC(C)CC(C)=CC(C)=CC(=O)OC` (stereo not drawn) [Example 11, methyl 11-(3-methoxymethyl-4-oxo-2-oxetano)-3,5,7-trimethyl-2,4-undecadienoate], the figure is 270 nM; as for `CCOCC1C(=O)OC1CCCCC(C)CC(C)=CC(C)=CC(=O)OC` (stereo not drawn) [Example 12, methyl 11-(3-ethoxymethyl-4-oxo-2-oxetano)-3,5,7-trimethvl-2.4-undecadienoate], 700 nM; as for `C=CCOCC1C(=O)OC1CCCCC(C)CC(C)=CC(C)=CC(=O)OC` (stereo not drawn) [Example 13, methyl 11-[3-(2-propenyloxymethyl)-4-oxo-2-oxetano]-3,5,7-trimethyl-2,4-undecadienoate], 1000 nM.
Consider `COCC1C(=O)OC1CCCCC(C)CC(C)=CC(C)=CC(=O)OC(c1ccccc1)c1ccccc1` (stereo not drawn) [Example 14 Step B, Diphenylmethyl 11-(3-methoxymethyl-4-oxo-2-oxetano)-3,5,7-trimethyl-2,4-undecadienoate], for which the IC50 (printed as (40 μg/ml) without footnote, read-out: IC50 (value printed in brackets as a concentration) (converted)) was 79300 nM.
With `COCC1C(=O)OC1CCCCC(C)CC(C)=CC(C)=CC(=O)O` (stereo not drawn) [Example 14, 11-(3-methoxymethyl-4-oxo-2-oxetano)-3,5,7-trimethyl-2,4-undecadienoic acid], under setting [1], the IC50 came to 110 nM.
On the same count and under the same terms, the figure for `COc1ccc(C(OCC2C(=O)OC2CCCCC(C)CC(C)=CC(C)=CC(=O)O)(c2ccccc2)c2ccccc2)cc1` (stereo not drawn) [Example 15, 11-(3-anisyldiphenylmethyloxymethyl-4-oxo-2-oxetano)-3,5,7-trimethyl-2,4-undecadienoic acid] is 10000 nM; for `COC(=O)C=C(C)C=C(C)CC(C)CCCCC1OC(=O)C1COS(C)(=O)=O` (stereo not drawn) [Example 16, methyl 11-(3-methanesulfonyloxymethyl-4-oxo-2-oxetano)-3,5,7-trimethyl-2,4-undecadienoate] it is 240 nM; for `COC(=O)C=C(C)C=C(C)CC(C)CCCCC1OC(=O)C1COC=O` (stereo not drawn) [Example 17, methyl 11-(3-formyloxymethyl-4-oxo-2-oxetano)-3,5,7-trimethyl-2,4-undecadienoate] it is 140 nM.
The term inhibition denotes the percentage by which the read-out fell short of the control. Consider `CCC(C)C(=O)OCC1C(=O)OC1CCCCC(C)CC(C)=CC(C)=CC(=O)OC` (stereo not drawn) [Example 18, methyl 11-[3-(2-methylbutyryloxymethyl)-4-oxo-2-oxetano]-3,5,7-trimethyl-2,4-undecadienoate], for which the inhibition at 10 µM (at 10^-5 M (IC25), read-out: percent inhibition) was found to be 25.4%.
Regarding `CC(=CC(=O)OC(C)(C)C)C=C(C)CC(C)CCCCC1OC(=O)C1CO` (stereo not drawn) [Example 20, tert-butyl 11-(3-hydroxymethyl-4-oxo-2-oxetano)-3,5,7-trimethyl-2,4-undecadienoate], the IC50 under setting [1] is 500 nM.
In the case of `COC(=O)C=C(C)C=C(C)CC(C)CCCCC1OC(=O)C1COC(=O)CCC(=O)O` (stereo not drawn) [methyl 11-[3-(3-carboxypropionyloxymethyl)-4-oxo-2-oxetano]-3,5,7-trimethyl-2,4-undecadienoate], the IC50 under setting [1] was 2400 nM.
In turn, “methyl 11-(3-urethanylmethyl)-4-oxo-2-oxetano)-3,5,7-trimethyl-2,4-undecadienoate” returned a percent inhibition (at 40 μg/ml) of 80.6%.
Under “at 4.0 μg/ml”, “methyl 11-[3-(N-methylurethanylmethyl)-4-oxo-2-oxetano]-3,5,7-trimethyl-2,4-undecadienoate [Example 19]” registered a percent inhibition of 86.2%.
